In US10232021B2, “Calcitonin mimetics for treating diseases and disorders” (KEYBIOSCIENCE AG, priority 2013, dated 2019):
Bridges are numbered along the chain shown (N, C = ends).

Assays:
[1] = Three-week treatment of ZDF rats: fasting plasma glucose and HbA1c; assay type: in vivo, male ZDF (fa/fa) rats; details: 5 μg/kg/day subcutaneously once daily, 3 weeks
Description: To assess the effects of the peptides in relation to regulation of blood glucose levels, male ZDF rats, which are the gold standard model of Type 2 Diabetes were treated for 3 weeks with the 3 most promising KBPs (023, 056 and 088) and an active comparator (UGP302/KBP-042). Male ZDF (fa/fa) rats were obtained at the age of 7 weeks from Charles River Laboratories (Kisslegg, Deutschland). All animals were housed at the animal facility at Nordic Bioscience with a constant temperature (21-23° C.) and relative humidity (55-65%) on a 12 h light/dark cycle with free access to Purina 5008 rat chow (Brogaarden, Lynge, Denmark) and tap water. At the age of 8 weeks, the animals were randomized into five groups of 8 rats each based upon fasting blood glucose and body weight (Vehicle (saline), UGP302/KBP-042 5 μg/kg/day, KBP-023 5 μg/kg/day, KBP-056 5 μg/kg/day and KBP-088 5 μg/kg/day) and dosing was done subcutaneously once daily. The animals were treated for a total of 3 weeks to assess the effect of the peptides on fasting blood glucose. Blood glucose was monitored using the Accu-Check® Avia monitoring system (Roche Diagnostics, Rotkreuz, Switzerland) and HbA1c levels by the DCA Vantage™ Analyzer (Siemens Healthcare Diagnostics, Deerfield, Ill.).

[2] = Single-dose food intake in obese High-Fat-Diet rats; assay type: in vivo; details: single subcutaneous dose 1.25, 2.5, 5 μg/kg; obese rats fasted overnight
Description: Rats were fed a High-Fat-Diet for 14 weeks prior to the experiment to induce obesity.
Further similar studies were undertaken over different time periods and with different peptides and the results are seen in FIG. 10 and FIGS. 11A-11B. The ability of KBP089 to suppress food intake over 72 hours was compared to that of KBP042 as control and the results are seen in FIG. 10.

[3] = molecular target: T1, Calcitonin Receptor (CTR) (Homo sapiens, UniProt P30988); assay: Competitive ligand binding against 125I-sCT on CTR cells; details: U20S-CALCR cells; 0.1 nM 125I-sCT; 60 min, 37° C.
T1 construct: host or cells: U2OS
T1 sequence (P30988 25-474): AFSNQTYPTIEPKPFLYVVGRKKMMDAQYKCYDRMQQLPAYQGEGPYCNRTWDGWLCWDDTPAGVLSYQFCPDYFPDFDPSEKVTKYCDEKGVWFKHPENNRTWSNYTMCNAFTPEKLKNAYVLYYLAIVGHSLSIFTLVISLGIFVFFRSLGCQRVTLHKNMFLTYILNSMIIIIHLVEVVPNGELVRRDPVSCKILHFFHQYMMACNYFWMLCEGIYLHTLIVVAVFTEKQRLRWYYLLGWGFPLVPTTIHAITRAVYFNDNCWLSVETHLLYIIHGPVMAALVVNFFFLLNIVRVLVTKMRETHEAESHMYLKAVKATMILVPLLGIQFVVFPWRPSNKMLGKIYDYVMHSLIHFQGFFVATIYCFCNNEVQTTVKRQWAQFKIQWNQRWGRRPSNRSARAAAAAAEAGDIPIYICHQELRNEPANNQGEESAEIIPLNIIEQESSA
Text: (§1) The following cell lines expressing the calcitonin, amylin and CGRP receptors were purchased and cultured according to the manufacturer's instructions. • 1. Calcitonin Receptor (CTR): U20S-CALCR from DiscoveRx (Cat. No.: 93-0566C3). • 2. Amylin Receptor (AMY-R): CHO-K1 CALCR+RAMP3 from DiscoveRx (Cat. No.: 93-0268C2). • 3. CGRP Receptor (CGRP-R): CHO-K1 CALCRL+RAMP1 from DiscoveRx (Cat. No.: 93-0269C2).
(§2) Corresponding to the beta-arrestin induction experiments, we performed competitive ligand binding experiments using the cells expressing the CTR and the AMY-R. In studying ligand binding on cells, 15.000 CTR or AMY-R cells were seeded in 96-well plate and cells were treated with 0.1 nM ^125I-conjugated sCT with or without the presence of unlabelled KBP in increasing doses for 60 min at 37° C. After incubation the supernatant was removed and cells were washed twice in 200 μl PBS. The cells were lysed using RIPA‡ buffer (30 mM M NaCl, 50 mM Tris-HCl, 5 mM EDTA, 1% Deoxycholic acid, […], Protease inhibitor tablet mini (1 tablet:10 ml)) and lysates as well were collected for measurement on a γ-counter.

Amylin Receptor (AMY-R) [4] = molecular target: T2, Amylin Receptor (AMY-R) (Homo sapiens, UniProt P30988); assay: PathHunter β-arrestin assay on the amylin receptor; assay type: cell-based; details: CHO-K1 CALCR+RAMP3 cells
T2 construct: host or cells: CHO-K1
T2 sequence (P30988 25-474): T1 sequence (P30988 25-474)
T2 sequence (O60896 24-148 partner): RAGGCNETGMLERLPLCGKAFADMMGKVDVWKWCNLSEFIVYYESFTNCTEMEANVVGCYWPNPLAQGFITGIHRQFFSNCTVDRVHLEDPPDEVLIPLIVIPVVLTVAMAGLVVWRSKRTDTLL
Description: as §1
In independent bioassays, CTR, AMY-R and CGRP-R cells were treated with for the indicated timepoints with increasing doses of sCT, UGP-302/KBP-042 or the KBPs identified in Table 3 (0, 0.001, 0.01, 0.1, 1, 10, and 100 nM). […]
In this system, the GPCR is fused in frame with the small enzyme fragment ProLink™ and co-expressed in cells stably expressing a fusion protein of β-Arrestin and the larger, N-terminal deletion mutant of β-gal (called enzyme acceptor or EA). […] This interaction leads to an increase in enzyme activity that can be measured using chemiluminescent PathHunter® Detection Reagents.
The assay was performed in white 384 well plates (Greiner Bio-One, 784080). […] To quantify the GPCR-mediated β-arrestin recruitment the Pathhunter™ Detection Kit (93-0001, DiscoverX) was used and assay performed accordingly to the manufacturer's instructions.

Amylin Receptor (AMY-R) [5] = molecular target: T2, Amylin Receptor (AMY-R); assay: Competitive ligand binding against 125I-sCT on AMY-R cells; details: CHO-K1 CALCR+RAMP3 cells; 0.1 nM 125I-sCT; 60 min, 37° C.
Text: as §1, §2

- competitive binding affinity on the CTR [3]: better than the other ligands
Substance: KBP-088: SEQ ID NO: 12; AcCSNLSTCMLGRLSQELHRLQTFPKTDVGANAP-NH2, Cys1-Cys7 disulphide bridge (Ac-CSNLSTCMLGRLSQELHRLQTFPKTDVGANAP-NH2; disulfide 1-7; SMILES CSCC[C@H](NC(=O)[C@@H]1CSSC[C@H](NC(C)=O)C(=O)N[C@@H](CO)C(=O)N[C@@H](CC(N)=O)C(=O)N[C@@H](CC(C)C)C(=O)N[C@@H](CO)C(=O)N[C@@H]([C@@H](C)O)C(=O)N1)C(=O)N[C@@H](CC(C)C)C(=O)NCC(=O)N[C@@H](CCCNC(=N)N)C(=O)N[C@@H](CC(C)C)C(=O)N[C@@H](CO)C(=O)N[C@@H](CCC(N)=O)C(=O)N[C@@H](CCC(=O)O)C(=O)N[C@@H](CC(C)C)C(=O)N[C@@H](Cc1c[nH]cn1)C(=O)N[C@@H](CCCNC(=N)N)C(=O)N[C@@H](CC(C)C)C(=O)N[C@@H](CCC(N)=O)C(=O)N[C@H](C(=O)N[C@@H](Cc1ccccc1)C(=O)N1CCC[C@H]1C(=O)N[C@@H](CCCCN)C(=O)N[C@H](C(=O)N[C@@H](CC(=O)O)C(=O)N[C@H](C(=O)NCC(=O)N[C@@H](C)C(=O)N[C@@H](CC(N)=O)C(=O)N[C@@H](C)C(=O)N1CCC[C@H]1C(N)=O)C(C)C)[C@@H](C)O)[C@@H](C)O)
- HbA1c [1]: highly active
- fasting plasma glucose (FPG) [1]: highly active
- food intake, 0-4 hours [2]: led to a reduction in food intake
- food intake, 4-24 hours [2]: the effect was maintained to 24 hours
- food intake, 24-48 hours [2]: only KBP-089 led to a reduction in food intake
- activation of the AMY-R (β-arrestin dose-response) (Amylin Receptor (AMY-R) [4]): more potent that the classical AMY-R agonist sCT
- competitive binding affinity on the AMY-R (Amylin Receptor (AMY-R) [5]): better than the other ligands, particularly on the AMY-R
